Test results reported in paper PMC12692861, “Biotin-Linked Ursolic Acid Conjugates as Selective Anticancer Agents and Target-Identification Tools for Cancer Therapy” (Molecules, 2025).

Legend:
5637 cells = experiment: ROS estimation with H2DCFDA; assay type: cell-based, human; details: 5637, 24 h, especially at concentrations above 20 µM
Method: (§1) Since 5c was not toxic to non-tumorigenic cells, such as MCF12A and UROtsa, these cells were excluded from experiments aimed at identifying the broad mechanism of cytotoxicity. A common mechanism by which these antioxidants induce cytotoxicity in tumor cells is by generating Reactive Oxygen Species (ROS) selectively in fast-growing tumor cells. The levels of ROS generated by 5c exposed cells were evaluated with the oxidation of 2′,7′-dichlorodihydrofluorescein diacetate (H2DCFDA). It is a cell-permeant fluorescent probe used for detecting ROS production (Thermo Scientific Inc., Waltham, MA, USA). […] Figure 3 illustrates the quantification of intracellular ROS levels in four bladder cancer cell lines, 5637, T24, HT-1376, and MB49, following treatment with UA and its biotin-conjugated derivative, compound 5c.
(§2) The relative levels of intracellular ROS produced in untreated and drug-treated cells were analyzed by fluorimetry using the fluorescent probe H2DCFDA (Sigma-Aldrich, #D6883, St. Louis, MI, USA), as described previously. Briefly, cells cultured in a 96-well plate at 1 × 10^4 cells per well were treated with drugs of interest for 24 h rinsed with sterile PBS to remove excess drugs, and incubated with 10 μM DCFDA for 30 min at 37 °C and 5% CO2. Following three rinses with PBS, the fluorescence intensity was recorded at excitation: 485/20, emission: 528/20 using a BioTek Synergy HTX Multimode fluorescence plate reader (Agilent Technologies, Inc., Santa Clara, CA, USA), and the data were represented as percentage change compared to the respective untreated control.
(§3) Figure 3 Estimation of oxidative stress: Treatment with UA or 5c increased ROS levels in various bladder cancer cells. ROS levels were estimated at 24 h using DCFDA. The relative fluorescence unit (RFU) was normalized to that observed in untreated cells and expressed as a percent increase. Data are Means ± SD, (n = 4). Relative significance, expressed as p-value are calculated based on one-way ANOVA.

HT1376 cells = experiment: ROS estimation with H2DCFDA; assay type: cell-based, human; details: HT1376, 24 h, especially at concentrations above 20 µM
Method: as §1, §2, §3

CC1CCC2(C(=O)OCCCCOC(=O)CCCCC3SCC4NC(=O)NC43)CCC3(C)C(=CCC4C5(C)CCC(O)C(C)(C)C5CCC43C)C2C1C [Compound 5c, 4-((5-((3aS,4S,6aR)-2-Oxohexahydro-1H-thieno [3,4-d]imidazol-4-yl)pentanoyl)oxy) butyl 3-hydroxy-urs-12-en-28-oate]
ROS levels (5637 cells): higher levels of ROS than UA | ROS levels (HT1376 cells): higher levels of ROS than UA
